Assay [1] can be described thus: Growth inhibition of human DLD1 cells assessed as inhibition of cell viability after 72 hrs by MTT assay. The class given is functional, cell-based. Conditions: DLD-1, 72 h.
In another assay the test system is HeLa. As to the kind of experiment: Growth inhibition of human HeLa cells assessed as inhibition of cell viability after 72 hrs by MTT assay. Type of assay: functional, cell-based. On the technique in general: Tetrazolium assays rely on reduction of a dye to a coloured formazan, in cell work by metabolically active cells.

For `CC(=O)O[C@H]1CO[C@@H](O[C@@H]2C[C@]3(C)[C@H](CC[C@@H]4[C@@]5(C)CC[C@H](O)C(C)(C)[C@@H]5[C@@H](O)C[C@]43C)[C@@]3(C)C[C@@H](O[C@@H]4O[C@H](CO)[C@@H](O)[C@H](O)[C@H]4O)[C@H](O)C(C)(C)[C@H]23)[C@H](O)[C@H]1O`, the IC50 (in assay [1]; in the assay with HeLa) was 52 µM throughout.
Take `COc1cc([C@@H]2c3cc4c(cc3[C@@H](O[C@@H]3O[C@@H]5CO[C@@H](C)O[C@H]5[C@H](O)[C@H]3O)[C@H]3COC(=O)[C@H]23)OCO4)cc(OC)c1O` [ETOPOSIDE]: the IC50 in assay [1] stood at 20 µM; with HeLa, 16 µM.

By IC50 is commonly meant the point on the concentration scale where inhibition reaches its midpoint.

Values taken from ChEMBL document CHEMBL3124936, “Unusual fernane and gammacerane glycosides from the aerial parts of Spergula fallax” (J Nat Prod, 2014).
